# According to patent USRE45173E1, “Inhibitors of CYP 17” (Novartis AG, priority 2009, dated 2014):
# Molecular target: recombinant human CYP17 enzyme (Homo sapiens (Human), UniProt P05093)
# Assay: Cytochrome P450, 17-20 lyase (CYP17-lyase) assay, tritiated acetic acid release from 17-α-hydroxy pregnenolone [21-3H]
# Assay type: biochemical
# Settings: human CYP17, substrate 0.25 μM; read-out: Lyase IC 50 nM Human/Rat (Human)
# From the text: Assay method was adopted from a published protocol with some modifications to suit our requirements (Dmitry N Grigoryev et al, Analytical Biochemistry, (1999) 267, 319-330). […] Chloroform extraction removes the radioactive steroids and acetic acid is taken into aqueous layer. The tritiated acetic acid released in the assay thus extracted is quantified to determine the enzyme activity. […] The purified cell membrane preparations were used as the source for Human CYP17 enzyme. […] O, Nijar, et al., J Med Chem, (1998) 41, 902-912). […] Km for this substrate was determined by monitoring the tritiated acetic acid release as a function of substrate concentration. […] For the Km determination, the data was fit to a hyperbolic equation (Graphpad Prism® software IV). […] (Dmitry N. Grigoryev et al, Analytical Biochemistry (1999) 267, 319-330) […] NADPH is used at a final concentration of 4.2 mM. Total reaction volume was made up to 50 μL with 50 mM Phosphate buffer pH 7.5. The reaction mixture was incubated at room temperature for 90 minutes with gentle shaking. The reaction was stopped by the addition of 100 μL of buffer. 500 μL of 5% freshly prepared activated charcoal was added to the solution and mixed well by vortexing. The samples were centrifuged at 17568×g for 5 minutes. (14000 rpm). The supernatant was carefully transferred to fresh tube and 1.3 mL of scintillation fluid was added, mixed by vortexing. The radioactivity was measured in a 1450 MicroBeta TriLux™ scintillation counter from Wallac-Perkin Elmer®, USA. The measurements were carried out in 2.0 mL Eppendorforf™ tubes. […] The amount of tritiated acetic acid released is proportional to the lyase activity. Percent lyase activity in presence of inhibitor was calculated using the formula given below. […] Enzyme reaction in presence of inhibitor. • Positive control: […] For IC50 determination, the % inhibition was plotted as a function of inhibitor concentration. The data was fitted to sigmoidal equation using Graphpad Prism® software IV to generate IC50 values.
# recombinant human CYP17 enzyme, sequence (P05093 whole entry): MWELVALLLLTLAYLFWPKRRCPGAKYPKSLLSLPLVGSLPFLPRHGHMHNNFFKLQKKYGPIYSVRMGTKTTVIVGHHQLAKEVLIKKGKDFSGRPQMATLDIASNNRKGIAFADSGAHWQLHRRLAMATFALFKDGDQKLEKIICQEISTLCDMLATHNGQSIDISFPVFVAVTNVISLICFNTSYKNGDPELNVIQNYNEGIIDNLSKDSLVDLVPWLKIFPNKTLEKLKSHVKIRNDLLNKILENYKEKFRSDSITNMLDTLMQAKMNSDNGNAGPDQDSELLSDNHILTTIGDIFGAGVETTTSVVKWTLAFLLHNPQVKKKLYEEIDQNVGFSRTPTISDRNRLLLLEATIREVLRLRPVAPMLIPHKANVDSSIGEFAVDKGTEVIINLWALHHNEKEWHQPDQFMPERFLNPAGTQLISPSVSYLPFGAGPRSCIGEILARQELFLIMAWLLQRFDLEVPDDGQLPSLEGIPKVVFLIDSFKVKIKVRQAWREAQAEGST
row,SMILES,IC50
1,"Cc1ccc(N2CCN(c3cnccc3C)C2=O)s1 [Example 15A, 1-(4-Methyl-pyridin-3-yl)-3-(5-methyl-thiophen-2-yl)-imidazolidin-2-one]",10 nM
2,"Cc1ccncc1N1CCN(c2ccc(Cl)cc2)C1=O [Example 38A, 1-(4-Chloro-phenyl)-3-(4-methyl-pyridin-3-yl)-imidazolidin-2-one]",70 nM
3,"Cc1ccncc1N1CCN(c2ccc(F)c(F)c2)C1=O [Example 45A, 1-(3,4-Difluoro-phenyl)-3-(4-methyl-pyridin-3-yl)-imidazolidin-2-one]",27 nM
4,"Cc1ccncc1N1CCN(c2ccc(F)c(Cl)c2)C1=O [Example 46A, 1-(3-Chloro-4-fluoro-phenyl)-3-(4-methyl-pyridin-3-yl)-imidazolidin-2-one]",10 nM
5,"Cc1ccncc1N1CCN(c2ccc3c(c2)OCCO3)C1=O [Example 49A, 1-(2,3-Dihydro-benzo[1,4]dioxin-6-yl)-3-(4-methyl-pyridin-3-yl)-imidazolidin-2-one]",30 nM
6,Cc1ccncc1N1CCN(c2ccc(C(F)(F)F)cc2)C1=O [Example 50A],51 nM
7,"Cc1ccncc1N1CCN(c2ccc3c(c2)CCO3)C1=O [Example 51A, 1-(2,3-Dihydro-benzofuran-5-yl)-3-(4-methyl-pyridin-3-yl)-imidazolidin-2-one]",14 nM
8,"COc1ccc(N2CCN(c3cnccc3C)C2=O)cc1F [Example 53A, 1-(3-Fluoro-4-methoxy-phenyl)-3-(4-methyl-pyridin-3-yl)-imidazolidin-2-one]",136 nM
9,"Cc1ccncc1N1CCN(c2ccc(Cl)c(F)c2)C1=O [Example 54A, 1-(4-Chloro-3-fluoro-phenyl)-3-(4-methyl-pyridin-3-yl)-imidazolidin-2-one]",15 nM
10,"COc1cccc(N2CCN(c3cnccc3C)C2=O)c1 [Example 56A, 1-(3-Methoxy-phenyl)-3-(4-methyl-pyridin-3-yl)-imidazolidin-2-one]",25 nM
11,"Cc1ccncc1N1CCN(c2ccnc(Cl)c2)C1=O [Example 58A, 1-(2-Chloro-pyridin-4-yl)-3-(4-methyl-pyridin-3-yl)-imidazolidin-2-one]",27 nM
12,"Cc1cc(N2CCN(c3cnccc3C)C2=O)ccc1F [Example 59A, 1-(4-Fluoro-3-methyl-phenyl)-3-(4-methyl-pyridin-3-yl)-imidazolidin-2-one]",17 nM
13,"Cc1ccncc1N1CCN(c2ccc3scnc3c2)C1=O [Example 62A, 1-Benzothiazol-5-yl-3-(4-methyl-pyridin-3-yl)-imidazolidin-2-one]",426 nM
14,"Cc1ccncc1N1CCN(c2ccc3c(c2)OC(F)(F)O3)C1=O [Example 64A, 1-(2,2-Difluoro-benzo[1,3]dioxol-5-yl)-3-(4-methyl-pyridin-3-yl)-imidazolidin-2-one]",35 nM
15,"Cc1ccncc1N1CCN(c2ccccc2)C1=O [Example 69A, 1-(4-Methyl-pyridin-3-yl)-3-phenyl-imidazolidin-2-one]",34 nM
16,"Cc1ccncc1N1CCN(c2ccn3ccnc3c2)C1=O [Example 73A, 1-imidazolidin-2-one]",109 nM
17,"COc1cc(N2CCN(c3cnccc3C)C2=O)ccc1F [Example 74A, 1-(4-Fluoro-3-methoxy-phenyl)-3-(4-methyl-pyridin-3-yl)-imidazolidin-2-one]",76 nM
18,Cc1ccncc1N1CCN(c2ccnc(N)c2)C1=O [Example 76A],192 nM
19,"Cc1ccncc1N1CCN(c2ccc3nccnc3c2)C1=O [Example 77A, 1-(4-Methyl-pyridin-3-yl)-3-quinoxalin-6-yl-imidazolidin-2-one]",195 nM
20,"Cc1ccncc1N1CCN(c2csc(C(F)F)c2)C1=O [Example 78A, 1-(5-Difluoromethyl-thiophen-3-yl)-3-(4-methyl-pyridin-3-yl)-imidazolidin-2-one]",9.3 nM
21,"O=C1N(c2ccc3ncsc3c2)CCN1c1cnccc1Cl [Example 84A, 1-Benzothiazol-6-yl-3-(4-chloro-pyridin-3-yl)-imidazolidin-2-one]",85 nM
22,"Cc1ccncc1N1CCN(c2ccnc(N3CCCC3)c2)C1=O [Example 85A, 1-(4-Methyl-pyridin-3-yl)-3-(2-pyrrolidin-1-yl-pyridin-4-yl)-imidazolidin-2-one]",1260 nM
23,"Cc1ccncc1N1CCN(c2cccc(Cl)c2F)C1=O [Example 86A, 1-(3-Chloro-2-fluoro-phenyl)-3-(4-methyl-pyridin-3-yl)-imidazolidin-2-one]",1200 nM
24,"Cc1ccncc1N1CCN(c2ccc(-c3ccc(F)cc3)cc2)C1=O [Example 87A, 1-(4′-Fluoro-biphenyl-4-yl)-3-(4-methyl-pyridin-3-yl)-imidazolidin-2-one]",255 nM
25,"Cc1ccncc1N1CCN(c2cccc(Cl)c2)C1=O [Example 88A, 1-(3-Chloro-phenyl)-3-(4-methyl-pyridin-3-yl)-imidazolidin-2-one]",12 nM
26,"Cc1cc(Cl)ccc1N1CCN(c2cnccc2C)C1=O [Example 89A, 1-(4-Chloro-2-methyl-phenyl)-3-(4-methyl-pyridin-3-yl)-imidazolidin-2-one]",326 nM
27,"Cc1ccncc1N1CCN(c2ccc(F)c(C(F)(F)F)c2)C1=O [Example 90A, 1-(4-Fluoro-3-trifluoromethyl-phenyl)-3-(4-methyl-pyridin-3-yl)-imidazolidin-2-one]",5 nM
28,"Cc1ccncc1N1CCN(c2ccc(F)c(C(F)F)c2)C1=O [Example 91A, 1-(3-Difluoromethyl-4-fluoro-phenyl)-3-(4-methyl-pyridin-3-yl)-imidazolidin-2-one]",4.3 nM

# The remaining lines, values ahead:
row,IC50,SMILES
1,3060 nM,"CN1CCC[C@H]1COc1ccncc1N1CCN(c2ccc3ncsc3c2)C1=O (stereo in doubt) [Example 181A, 1-Benzothiazol-6-yl-3-[4-(1-methyl-pyrrolidin-2-ylmethoxy)-pyridin-3-yf]-imidazolidin-2-one]"
2,22 nM,"Cc1ccncc1-n1ccn(-c2ccc(F)c(C(F)F)c2)c1=O [Example 91B, 1-(3-Difluoromethyl-4-fluoro-phenyl)-3-(4-methyl-pyridin-3-yl)-1,3-dihydro-imidazol-2-one]"
3,21 nM,"Cc1cc(-n2ccn(-c3cnccc3C)c2=O)cs1 [Example 92A, 1-(4-Methylpyridin-3-yl)-3-(5-methylthiophen-3-yl)-1H-imidazol-2(3H)-one]"
4,12 nM,"Cc1cc(N2CCN(c3cnccc3C)C2=O)cs1 [Example 92B, 1-(4-Methyl-pyridin-3-yl)-3-(5-methyl-thiophen-3-yl)-imidazolidin-2-one]"
5,110 nM,"Cc1ccncc1N1CCN(c2ccc3nccn3c2)C1=O [Example 94A, 1-Imidazo[1,2-a]pyridin-6-yl-3-(4-methyl-pyridin-3-yl)-imidazolidin-2-one]"
6,119 nM,"Cc1ccncc1N1CCN(c2ccc3[nH]nc(C)c3c2)C1=O [Example 95A, 1-(3-Methyl-1H-indazol-5-yl)-3-(4-methyl-pyridin-3-yl)-imidazolidin-2-one]"
7,356 nM,"COc1nccc2sc(N3CCN(c4cnccc4C)C3=O)cc12 [Example 97A, 1-(4-Methoxy-thieno[3,2-c]pyridin-2-yl)-3-(4-methyl-pyridin-3-yl)-imidazolidin-2-one]"
8,18 nM,"Cc1ccncc1N1CCN(c2cc3c(Cl)nccc3s2)C1=O [Example 98A, 1-(4-chloro-thieno[3,2-c]pyridin-2-yl)-3-(4-methyl-pyridin-3-yl)-imidazolidin-2-one]"
9,22 nM,"Cc1ccncc1N1CCN(c2csc3ccnc(Cl)c23)C1=O [Example 99A, 1-(4-Chloro-thieno[3,2-c]pyridin-3-yl)-3-(4-methyl-pyridin-3-yl)-imidazolidin-2-one]"
10,46 nM,"Cc1cc(N2CCN(c3cnccc3C)C2=O)ccn1 [Example 100A, 1-(4-Methyl-pyridin-3-yl)-3-(2-methyl-pyridin-4-yl)-imidazolidin-2-one]"
11,46 nM,"Cc1ccncc1N1CCN(c2ccc3onc(C)c3c2)C1=O [Example 101A, 1-(3-Methyl-benzo[d]isoxazol-5-yl)-3-(4-methyl-pyridin-3-yl)-imidazolidin-2-one]"

# Same assay, conditions: human CYP17, substrate 0.25 μM; read-out: Lyase IC 50 Human/Rat (Human)
row,SMILES,IC50
1,"CC(=O)Nc1ccc(N2CCN(c3cnccc3C)C2=O)cn1 [Example 75A, N-{5-[3-(4-Methyl-pyridin-3-yl)-2-oxo-imidazolidin-1-yl]-pyridin-2-yl}-acetamide]",> 10000 nM
2,"Cc1nc2cc(N3CCN(c4cnccc4C)C3=O)ccc2o1 [Example 93A, 1-(2-Methyl-benzooxazol-5-yl)-3-(4-methyl-pyridin-3-yl)-imidazolidin-2-one]",> 10000 nM
3,CC(=O)Nc1cc(N2CCN(c3cnccc3C)C2=O)ccn1 [Example 96A],> 10000 nM

# Same assay, conditions: substrate varied from 0.03125 μM to 1 μM, hyperbolic fit; read-out: Km (Michaelis Menton constant) of the substrate
row,SMILES,Km
1,"CC(=O)C1(O)CCC2C3CC=C4CC(O)CCC4(C)C3CCC21C (stereo not drawn) [17-α-hydroxy pregnenolone [21-3H], reference compound]",250 nM
